“Also recorded” adds a separate entry of the source.
Experiments:
[1] = test system: primary human T cells modified with the HLA class I restricted CDK4 TCR; test: Cytokine release and degranulation assay, CDK4 TCR T cells co-cultured with CDK4 peptide loaded T2 cells; type: cell-based
Method: (§1) For use as T cell targets, T2 and CBH 5477 cells were loaded with the indicated concentrations of HLA-A*02:01 restricted mutant CDK4 peptide (ALDPHSGHFV), HLA A*02:01 restricted NY-ESO-1 peptide (SLLMWITQA), or HLA-DR1 restricted CMV peptide (KYQEFFWDANDIYRI) in IMDM for 1 hour at 37° C. Cells were then washed once and used in co-culture experiments.
(§2) T cells and NK cells were pretreated with the indicated concentrations of asunaprevir (MedChemExpress, #HY-14434), grazoprevir (MedChemExpress, #HY-15298), dTAG-13 (Tocris, #6605) or DMSO control in T cell media (RPMI/10% human serum/penicillin-streptomycin, 100 IU/ml IL2 and 5 ng/ml IL15) or NK cell media (RPMI/8% FCS/penicillin-streptomycin, 500 IU/ml IL2), respectively, for 24 hours before co-culture experiments. 100,000 T cells or NK cells and 100,000 of indicated tumor cells were mixed in T cell or NK cell media supplemented with golgi-plug (1:1000 dilution, BD, #51-2301KZ) and anti-LAMP1-APC (1:100 dilution, Biolegend, #328620) in the presence of indicated drugs or DMSO control in 96-well plates and incubated for 5 hours at 37° C.
(§3) After incubation, cells were washed once with PBS and stained with IR dye (Invitrogen, #L34976) at 1:400 dilution for 5 minutes at 4° C. Subsequently, cells were washed once with FACS buffer (PBS plus 0.5% BSA) and stained with anti-CD8-PerCP Cy5.5 (1:20 dilution, BD, #341050), anti-CD4 BV711 (1:50 dilution, Biolegend, #317440), anti-murine constant TCR-PE (in experiments with transduced TCRs, 1:200 dilution, BD, #553172) or cetuximab-PE (in experiments with transduced CAR construct containing truncated human EGFR reporter, 1:200 dilution, R&D Systems, #FAB9577P) for 20 minutes at 4° C. Cells were then washed once with FACS buffer and fixed with BD fixation and permeabilization solution (#51-2090KZ) for 20 minutes at 4° C.
(§4) Following permeabilization, cells were washed twice with BD perm/wash buffer (#51-2091KZ) and stained with anti-IFNγ-BV421 (1:100 dilution, BD, #564791), anti-IL-2-PE-Cy7 (1:100 dilution, BD, #560707) and anti-TNFα-BV650 (1:100 dilution, Biolegend, #502938) diluted in perm/wash buffer for 20 min at 4° C. Cells were then washed twice, resuspended in 100 μl FACS buffer and analyzed directly on a Fortessa Special Order analyzer. Data were analyzed using FlowJo and Prism 7 software.

[2] = test system: CD8 T cells modified with an NY-ESO-1 shared antigen specific TCR; test: Cytokine release and degranulation assay, NY-ESO-1 TCR T cells co-cultured with NY-ESO-1 peptide loaded T2 cells; type: cell-based, human; conditions: 10 μM asunaprevir
Method: as §1
T cells and NK cells were pretreated with the indicated concentrations of asunaprevir (MedChemExpress, #HY-14434), grazoprevir (MedChemExpress, #HY-15298), dTAG-13 (Tocris, #6605) or DMSO control in T cell media (RPMI/10% human serum/penicillin-streptomycin, 100 IU/ml IL2 and 5 ng/ml IL15) or NK cell media (RPMI/8% FCS/penicillin-streptomycin, 500 IU/ml IL2), respectively, for 24 hours before co-culture experiments. […]
as §4

[3] = test system: anti-CD19-CD28-CD3ζ chain CAR modified human T cells; test: Cytokine release and degranulation assay, anti-CD19-CD28-CD3ζ CAR T cells co-cultured with Raji or Daudi; type: cell-based; conditions: co-culture with CD19 positive Raji or Daudi; 10 μM asunaprevir
Method: as §2
(§5) After incubation, cells were washed once with PBS and stained with IR dye (Invitrogen, #L34976) at 1:400 dilution for 5 minutes at 4° C. […]
as §4

NKIRTIL006 tumor cells = test: 51Cr release cytotoxicity assay; type: cell-based, human; conditions: 0.5 μM dTAG-13 vs DMSO
Method: Culture media of Zap70-PD1-FKBP^F36V expressing cells is supplemented with 0.5 μM dTAG-13 PROTAC starting one day before cell sorting until 4 days before ^51Cr assay. Primary human T cells modified with the CDK4 TCR plus either the Zap70-PD1-FKBP^F36V switch or IRES-EGFP vector control were sorted on a Beckman Coulter Moflo Astrios using an 80 μM nozzle. Cells were cultured in standard T cell culturing conditions in RPMI/10 human serum/penicillin-streptomycin 100 IU/ml IL-2 and 5 ng/ml IL-15 for 7 days.
After this, cells were expanded using a rapid expansion protocol (REP). […] At day 6, culture media is refreshed with 3000 IU/ml IL-2 containing media and cultures were split into 2 every 3 days with media containing IL-2 (3000 IU/ml final concentration). At day 12, cells were switched to standard T cell culturing conditions (RPMI/10% human serum/penicillin-streptomycin/100 IU/ml IL-2 and 5 ng/ml IL-15) for 3 days, until use in ^51Cr assays.
One day prior to ^51Cr assay, T cells were pretreated with 0.5 μM dTAG-13 PROTAC or DMSO in standard T cell culturing conditions in RPMI/10% human serum/penicillin-streptomycin/100 IU/ml IL-2 and 5 ng/ml IL-15. 5×10^5 tumor cells were resuspended in 100 μl media, mixed gently with 100 ρCi ^51Cr and then incubated at 37° C. for 45 minutes. […]

[4] = test system: primary human T cells modified with the CDK4 TCR; test: Cytokine release and degranulation assay, CDK4 TCR T cells with SMASh or FKBP12^F36V switch co-cultured with NKIRTIL006 tumor cells; type: cell-based
Method: as §2, §5, §4

NK cell line KHYG-1 = test: Cytokine release assay, KHYG-1 NK cells co-cultured with K562 tumor; type: cell-based, human; conditions: Zap70-PD1-FKBP12^F36V switch; 0.5 μM dTAG-13
Method: Human NK cell line KHYG-1 (DSMZ, Leibniz, Germany) was cultured in RPMI supplemented with 8% FBS and penicillin-streptomycin (100 IU/ml penicillin, 100 μg/ml streptomycin) containing 500 IU/ml IL-2 (Novartis). All cell lines were tested for mycoplasma using PCR based screening (Young et al, Nat Protoc. 2010 May; 5(5):929-34) and found negative.
24-well non treated cell culture plates were covered with 10 μg/ml retronectin (Takara, #T100B) overnight at 4° C. The next day, the retronectin solution was removed and wells were blocked with 2% BSA (Sigma-Aldrich, A9418-500g) in PBS for 30 minutes. […]
as §4

[5] = test system: primary human T cells modified with the CDK4 TCR and Zap70-PD1-zinc finger degrons; test: IMiD regulation of zinc finger degron CRASH-IT switches, CDK4 TCR T cells co-cultured with NKIRTIL006 tumor cells; type: cell-based; conditions: for restoration of activity levels (cytokine production, cell surface LAMP-1) by IMiD: IKZF1-based CRASH-IT switch (IKZF1 ZF2-ZF3 degron)
Description: Constructs containing various zinc finger degrons in MP71 Zap70-PD1-Zinc finger IRES-EGFP format were created using IKZF1 ZF2-3 degron containing sequence (Q13422, 141-197 aa), or IKZF3 ZF2-3 degron containing sequence (Q9UKT9, 142-198 aa), or ZFP91 ZF4-5 degron containing sequence (Q96JP5, 396-455 aa), ZNF276 ZF4-5 degron containing sequence (Q8N554, 520-579 aa), ZNF653 ZF4-5 degron containing sequence (Q96CK0, 552-611 aa), or ZNF692 ZF4-5 degron containing sequence (Q9BU19, 413-473 aa). For CRASH-IT switches encoding hybrid zinc finger degrons, the IKZF1 ZF2 beta turn sequence (FQCNQCGASFT) was replaced with beta turn sequences from ZNF653 ZF4 (LQCEICGYQCR), ZFP91 ZF4 (LQCEICGFTCR), ZNF276 ZF4 (LQCEVCGFQCR), or ZNF827 ZF1 (FQCPICGLVIK). For the CRASH-IT switch encoding ZFP91/IKZF1 hybrid zinc finger without IKZF1 ZF3 (single ZF), the IKZF1 ZF3 containing sequence (Q13422, 170-197 aa) was deleted from the Zap70-PD1-ZFP91/IKZF1 hybrid zinc finger (double ZF) construct.
as §2
as §3, with “Cells were then washed once with FACS buffer and fixed with BD fixation and permeabilization solution (#51-2090KZ) for 20 minutes at 4° C.” left out
as §4

[6] = Zap70-PD1-SMASh T cells, 10 μM asunaprevir relative to DMSO-treated cells, peptide-loaded target cells (10 nM)

C=C[C@@H]1C[C@]1(NC(=O)[C@@H]1C[C@@H](Oc2ncc(OC)c3ccc(Cl)cc23)CN1C(=O)[C@@H](NC(=O)OC(C)(C)C)C(C)(C)C)C(=O)NS(=O)(=O)C1CC1 [asunaprevir]
boost of CD8+ T cell activation, IFNγ [1, 6]: 8.8 fold
boost of CD8+ T cell activation, IL2 [1, 6]: 11.5 fold
boost of CD8+ T cell activation, TNFα [1, 6]: 6.3 fold
boost of CD8+ T cell activation, cell surface LAMP1 expression [1, 6]: 6.6 fold
drug effect on inhibition of T cell function by Zap70-PD1-SMASh ([1]; primary human CD8 and CD4 T cells with Zap70-PD1-SMASh): reverted; also recorded: dose dependent recovery
effector functions of Zap70-PD1-SMASh fusion protein-negative T cells (vector control) ([1]; vector control T cells, protease inhibitor): unaltered
functional activity of NY-ESO-1 TCR CD8 T cells with CRASH-IT switch upon drug addition [2]: restored
T cell functions of CAR T cells with Zap70-PD1-SMASh upon drug addition [3]: recovered

CC[C@H](C(=O)N1CCCC[C@H]1C(=O)O[C@H](CCc1ccc(OC)c(OC)c1)c1ccccc1OCC(=O)NCCCCCCOc1cccc2c1C(=O)N(C1CCC(=O)NC1=O)C2=O)c1cc(OC)c(OC)c(OC)c1 (some centres unmarked) [dTAG-13]
cytotoxic activity of control vector-modified T cells (NKIRTIL006 tumor cells): unaltered
killing of 51Cr loaded NKIRTIL006 tumor cells by sorted CD8 cells with Zap70-PD1-FKBP12^F36V (NKIRTIL006 tumor cells): increased killing
reactivation of T cell function at high drug concentrations ([4]; FKBP12^F36V/dTAG-13 based switches, high drug concentrations): suboptimal reactivation of T cell function
concentration at which activation of CRASH-IT platform peaks ([4]; small-molecule titration, Zap70-PD1-FKBP12^F36V (dTAG-13) or Zap70-PD1-SMASh (HCV NS3/4A inhibitors)): around 0.5 μM
suppression of NK cell cytokine production in the presence of drug (NK cell line KHYG-1): reversed

Nc1cccc2c1CN(C1CCC(=O)NC1=O)C2=O (centres unmarked) [lenalidomide]
restoration of activity levels (cytokine production, cell surface LAMP-1) by IMiD [5]: robustly restored

Nc1cccc2c1C(=O)N(C1CCC(=O)NC1=O)C2=O (centres unmarked) [pomalidomide]
restoration of activity levels (cytokine production, cell surface LAMP-1) by IMiD [5]: robustly restored

O=C1CCC(N2C(=O)c3ccccc3C2=O)C(=O)N1 (centres unmarked) [thalidomide]
restoration of activity levels (cytokine production, cell surface LAMP-1) by IMiD [5]: lesser
reduction of thalidomide concentration required for the same level of cytokine production (IFNγ, IL-2, or TNFα) or surface LAMP-1 expression ([5]; T cells expressing the chimeric degrons as compared to the parental IKZF1 ZF2-3 degron): around 1,000 fold

From patent US20230151373A1, “CHIMERIC POLYPEPTIDE FOR REGULATING IMMUNE CELLS” (STICHTING HET NEDERLANDS KANKER INSTITUUT-ANTONI VAN …, priority 2019, published 2023)
